Measured values taken from patent US20150305333A1, “USE OF GLUCOSAMINE AMIDES AS PLANT GROWTH AND YIELD ENHANCERS” (PIONEER HI-BRED INTERNATIONAL, INC., priority 2012, published 2015).

Key:
[1] = tested on: Spring barley (Hordeum vulgare); assay: Spring barley field trial 2010: emergence, height, yield; assay type: in vivo; details: for Barley Yield: entire plot harvested
Method: A field trial was conducted to evaluate the effects of NPG on plant emergence, height, and yield in Spring barley (Hordeum vulgare) planted near Thorndale, Ontario, Canada, in 2010. Seed treatments included an Untreated Control, three concentrations of NPG, and three concentrations of a natural LCO. The natural LCO was provided by Dr. Don Smith (McGill University, Montreal, Canada) and prepared as described in Example 2. Aqueous solutions of NPG and LCO were applied at 10^−6 M, 10^−7 M and 10^−8M to barley seed using a spray nozzle and left to soak on a plastic sheet for 20 minutes. The seeds were beginning to emerge when they were planted on June 8th in a loam composed of 41% sand, 39% silt and 20% clay and 4.5% organic matter.
Barley was planted at a rate of 100 kg seed/ha to a depth of 2.5 cm. Weeds were controlled using 770 mL/ha 8.79 wt % fenoxprop-P-ethyl, and a mixture of 33.33 wt % thifensulfuron methyl and 16.67 wt % tribenuron methyl at a rate of 30 g/ha. Disease was controlled with 23.6 wt % pyraclostrobin at a rate of 0.4 L/ha. All of the products are industry standards and representative of what is used in commercial production.
The trial was conducted using a randomized complete block design with a plot size of 2 m by 8 m with a 17.8 cm row spacing, 3.3 cm plant spacing and four replications
Yield was determined by harvesting the entire plot and transforming the data to kg/ha (Table 10). Yields are not corrected for differences in emergence rates. […] It is noteworthy, however, that yield benefits may be difficult to accurately determine with the small plots used in this study.

[2] = tested on: Shepody potatoes (Solanum tuberosum); assay: Potato field trial 2010: emergence, flowering, marketable yield; assay type: in vivo; details: for Marketable Potato Yield for One Row of Plot: one 8 m row, fresh weight
Method: A potato field trial was conducted to evaluate the effects of NPG on plant emergence, flowering and yield in Shepody potatoes (Solanum tuberosum) planted near Thorndale, Ontario, Canada, in 2010. Seed treatments included an Untreated Control, three concentrations of NPG and three concentrations of an LCO derived from Bradyrhizobium japonicum to serve as a positive control. The LCO was provided by Dr. Don Smith (McGill University, Montreal, Canada) using the basic method described in Soulemanov, A., et al., in Microbiol. Res., 157: 25-28 (2005). Aqueous solutions of NPG and LCO were applied at 10^−6M, 10^−7M and 10^−8M to seed pieces using a spray nozzle and left to soak on a plastic sheet for 20 minutes. The seed pieces were beginning to sprout when planted on June 8th in a loam composed of 41% sand, 39% silt and 20% clay and 4.5% organic matter.
Potatoes were planted at a rate of 33,300 seed pieces/ha to a depth of 20 cm and hilled using a tractor mounted potato hiller. Weeds were controlled using three L/ha of 40.6 wt % linuron. Insects were controlled using 250 ml/ha 18.4 wt % chlorantraniprole, and disease was controlled using a tank mix of 1.6 kg/ha 75 wt % mancozeb and 225 g/ha 60 wt % cymoxanil fungicides. Before harvest, plants were sprayed twice (seven days apart) with 39.5 wt % diquat dibromide herbicide at a rate of 2 L/ha. All of the products used are industry standards and representative of what is used in commercial production.
The trial was conducted using a randomized complete block design with a plot size of 2 m by 8 m with a 100 cm row spacing, 30 cm plant spacing and four replications Due to wet weather, the soil was damp and cloddy during the planting and hilling process.
Marketable potato yield was determined by harvesting one entire 8 m row of the plot (Table 3). The Untreated Control row with the highest emergence was harvested. Yields were not corrected for differences in emergence rates. The 10^−6 M and 10^−7 M NPG treatments and the 10^−8 M LCO treatment provided a statistically significant increase in marketable fresh weight yield compared to the Untreated Control.

SMILES: CCCCCCC=CCCCCCCCC(=O)NC1C(OC)OC(CO)C(O)C1O [NPG, Methyl 2-deoxy-2-N-(hexadece-9,10-cis-eneoyl)-β-D-glucopyranoside]
- Barley Emergence ([1]; 10^−6M seed treatment, 7 DAP): 85a %
- Barley Plant Height ([1]; 10^−6M seed treatment, 7 DAP): 5.8a cm
- Barley Emergence ([1]; 10^−6M seed treatment, 15 DAP): 88ab %
- Barley Plant Height ([1]; 10^−6M seed treatment, 15 DAP): 12ab cm
- Barley Emergence ([1]; 10^−6M seed treatment, 43 DAP): 19a %
- Barley Plant Height ([1]; 10^−6M seed treatment, 43 DAP): 71a cm
- Barley Yield ([1]; 10^−6M seed treatment): 3184 Kg/Hectare
- Barley Emergence ([1]; 10^−7M seed treatment, 7 DAP): 86a %
- Barley Plant Height ([1]; 10^−7M seed treatment, 7 DAP): 5.5ab cm
- Barley Emergence ([1]; 10^−7M seed treatment, 15 DAP): 91a %
- Barley Plant Height ([1]; 10^−7M seed treatment, 15 DAP): 14a cm
- Barley Emergence ([1]; 10^−7M seed treatment, 43 DAP): 30a %
- Barley Plant Height ([1]; 10^−7M seed treatment, 43 DAP): 71a cm
- Barley Yield ([1]; 10^−7M seed treatment): 2504 Kg/Hectare
- Barley Emergence ([1]; 10^−8M seed treatment, 7 DAP): 83a %
- Barley Plant Height ([1]; 10^−8M seed treatment, 7 DAP): 5.6a cm
- Barley Emergence ([1]; 10^−8M seed treatment, 15 DAP): 86ab %
- Barley Plant Height ([1]; 10^−8M seed treatment, 15 DAP): 13a cm
- Barley Emergence ([1]; 10^−8M seed treatment, 43 DAP): 25a %
- Barley Plant Height ([1]; 10^−8M seed treatment, 43 DAP): 72a cm
- Barley Yield ([1]; 10^−8M seed treatment): 3043 Kg/Hectare
- Potato Emergence ([2]; 10^−6M seed piece treatment, 15 DAP): 16b %
- Potato Emergence ([2]; 10^−6M seed piece treatment, 17 DAP): 41b %
- Potato Emergence ([2]; 10^−6M seed piece treatment, 21 DAP): 68c %
- Potato Emergence ([2]; 10^−6M seed piece treatment, 29 DAP): 72c %
- Potato Flowering ([2]; 10^−6M seed piece treatment, 42 DAP): 19a %
- Potato Flowering ([2]; 10^−6M seed piece treatment, 50 DAP): 53ab %
- Marketable Potato Yield for One Row of Plot ([2]; 10^−6M seed piece treatment): 17.92b Kg/Plot
- Potato Emergence ([2]; 10^−7M seed piece treatment, 15 DAP): 9ab %
- Potato Emergence ([2]; 10^−7M seed piece treatment, 17 DAP): 30ab %
- Potato Emergence ([2]; 10^−7M seed piece treatment, 21 DAP): 48b %
- Potato Emergence ([2]; 10^−7M seed piece treatment, 29 DAP): 52b %
- Potato Flowering ([2]; 10^−7M seed piece treatment, 42 DAP): 20a %
- Potato Flowering ([2]; 10^−7M seed piece treatment, 50 DAP): 47ab %
- Marketable Potato Yield for One Row of Plot ([2]; 10^−7M seed piece treatment): 16.05b Kg/Plot
- Potato Emergence ([2]; 10^−8M seed piece treatment, 15 DAP): 13ab %
- Potato Emergence ([2]; 10^−8M seed piece treatment, 17 DAP): 30ab %
- Potato Emergence ([2]; 10^−8M seed piece treatment, 21 DAP): 45b %
- Potato Emergence ([2]; 10^−8M seed piece treatment, 29 DAP): 55b %
- Potato Flowering ([2]; 10^−8M seed piece treatment, 42 DAP): 11a %
- Potato Flowering ([2]; 10^−8M seed piece treatment, 50 DAP): 54ab %
- Marketable Potato Yield for One Row of Plot ([2]; 10^−8M seed piece treatment): 13.80ab Kg/Plot
